Data taken from EP4596574A1, “GLP-1/GCG/GIP TRIPLE-RECEPTOR AGONIST AND USE THEREOF” (Sunshine Lake Pharma Co., Ltd., priority 2022, dated 2024).
Read-outs that look alike come from different tables or passages of the source. Marks after values point to notes of the source that are not given here. Starred links: 1 amine or outer side, 2 acyl side, 3 side chain; linkers in the order of their positions; H or OH if unused. Non-standard residues stand in square brackets, D forms with d. Residues, ends and D or L forms follow the SMILES beside them. Groups on a side chain read outwards from the residue. *: point of attachment. C18 diacid = O=C(O)CCCCCCCCCCCCCCCCC(=O)*; αMePhe(2-F) = C[C@](N)(Cc1ccccc1F)C(=O)O; γGlu = O=C(O)[C@H](CCC(=O)[*:2])N[*:1]; AEEA = NCCOCCOCC(=O)O; Aib = CC(C)(N)C(=O)O

Experiments:
[1] = Pharmacokinetic study in rats, single subcutaneous injection; settings: male, Sprague Dawley, in vivo, sc, rat
Procedure: The pharmacokinetic study of each polypeptide compound prepared in Example 1 was conducted using male Sprague Dawley rats. There were 3 male rats in each group. […] The dose was 50 nmol/kg, and a single subcutaneous injection was given (see Table 3 for specific peptide compounds). After administration, plasma was collected on the specified days and time points, and the concentration of each peptide compound in the plasma was detected by LC-MS/MS method. The pharmacokinetic parameters were obtained based on the concentration data, which were used to describe the pharmacokinetic properties of the peptide in rats after subcutaneous injection. Table 3: Summary of pharmacokinetic parameters of some triple-target peptides in rats

[2] = Glucose tolerance assessment in normal C57BL/6 mice (Example 5); type: in vivo
Procedure, shortened: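 Normal C57BL/6 mice given a single dose, fasted 12 h starting 12 h post-dose, then challenged with 2 g/kg glucose i.p. Tail-vein glucose measured at baseline and 15, 30, 60, 90 min. AUC0~90min calculated from the glucose–time curve per dose group.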

GCGR = target: T1, GCGR (Homo sapiens, UniProt P47871); assay: In vitro cell activity, cAMP production in HEK293 cells expressing GCGR; type: cell-based
T1 construct: expressed in transfected cells; host or cells: HEK293 (HEK293-GCGR)
Procedure, shortened: (§1)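 Cells were plated at 4×10^5 cells/mL, and detection reagents (cAMP-d2, anti-cAMP cryptate, 1:1) were incubated 1 h at room temperature in the dark or overnight at 4 °C.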

GLP-1R = target: T2, GLP-1R (Homo sapiens, UniProt P43220); assay: In vitro cell activity, cAMP production in HEK293 cells expressing GLP-1R; type: cell-based
T2 construct: expressed in transfected cells; host or cells: HEK293 (HEK293-GLP-1R)
Procedure, shortened: as §1

GIPR = target: T3, GIPR (Homo sapiens, UniProt P48546); assay: In vitro cell activity, cAMP production in HEK293 cells expressing GIPR; type: cell-based
T3 construct: expressed in transfected cells; host or cells: HEK293 (HEK293-GIPR)
T3 sequence (P48546 22-466): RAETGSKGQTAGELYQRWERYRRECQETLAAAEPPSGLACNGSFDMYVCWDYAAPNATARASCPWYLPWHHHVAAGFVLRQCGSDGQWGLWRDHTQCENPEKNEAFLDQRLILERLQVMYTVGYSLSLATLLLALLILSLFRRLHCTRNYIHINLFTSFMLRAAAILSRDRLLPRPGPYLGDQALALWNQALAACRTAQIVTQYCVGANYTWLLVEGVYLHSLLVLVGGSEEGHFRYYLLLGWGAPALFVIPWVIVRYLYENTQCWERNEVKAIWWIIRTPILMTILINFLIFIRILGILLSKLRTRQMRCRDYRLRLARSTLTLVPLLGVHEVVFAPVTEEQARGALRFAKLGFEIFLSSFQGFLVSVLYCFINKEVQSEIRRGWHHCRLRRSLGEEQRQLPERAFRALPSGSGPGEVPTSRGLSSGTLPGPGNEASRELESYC
Procedure, shortened: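 cAMP accumulation is quantified by homogeneous TR-FRET (cAMP-d2 plus anti-cAMP cryptate) in GIPR-expressing HEK293 cells seeded from a 4×10^5 cells/mL suspension and treated with compound. The signal ratio is plotted against concentration and fitted to a four-parameter curve to give EC50.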

[3] = 50 nmol/kg single subcutaneous injection, plasma

T2 sequence (P43220 24-463, species assumed): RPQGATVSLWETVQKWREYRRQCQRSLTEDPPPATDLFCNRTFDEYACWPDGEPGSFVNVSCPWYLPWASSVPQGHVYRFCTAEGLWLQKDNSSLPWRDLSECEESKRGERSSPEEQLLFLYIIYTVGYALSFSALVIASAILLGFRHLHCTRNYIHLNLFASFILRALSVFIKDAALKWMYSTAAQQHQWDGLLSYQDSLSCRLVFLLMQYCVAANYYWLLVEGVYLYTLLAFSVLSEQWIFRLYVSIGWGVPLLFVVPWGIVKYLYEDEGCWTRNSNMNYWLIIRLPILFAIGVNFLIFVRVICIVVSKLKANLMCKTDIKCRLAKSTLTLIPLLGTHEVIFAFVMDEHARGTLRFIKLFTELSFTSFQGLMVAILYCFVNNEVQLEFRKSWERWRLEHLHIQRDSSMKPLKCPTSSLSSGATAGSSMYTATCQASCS
T1 sequence (P47871 26-477, species assumed): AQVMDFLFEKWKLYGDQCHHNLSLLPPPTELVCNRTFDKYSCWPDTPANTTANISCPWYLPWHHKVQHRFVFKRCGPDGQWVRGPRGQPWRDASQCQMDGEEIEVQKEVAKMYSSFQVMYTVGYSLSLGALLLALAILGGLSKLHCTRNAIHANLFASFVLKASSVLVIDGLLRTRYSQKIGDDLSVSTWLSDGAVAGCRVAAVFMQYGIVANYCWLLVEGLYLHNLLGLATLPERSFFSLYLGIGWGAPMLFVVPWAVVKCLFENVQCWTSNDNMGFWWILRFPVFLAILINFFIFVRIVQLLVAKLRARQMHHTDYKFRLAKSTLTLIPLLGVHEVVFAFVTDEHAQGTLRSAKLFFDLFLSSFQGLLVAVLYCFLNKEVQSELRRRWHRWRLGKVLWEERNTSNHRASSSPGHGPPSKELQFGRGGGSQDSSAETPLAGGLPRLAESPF

Row | Structure (SMILES) | AUC(0-inf) [1, 3] [ng·h/mL] | AUC(0-t) [1, 3] [ng·h/mL] | Cmax [1, 3] [ng/mL] | half-life ([1]; 50 nmol/kg single subcutaneous injection, plasma, read-out: T1/2 (converted)) [h] | Tmax ([1]; 50 nmol/kg single subcutaneous injection, plasma, read-out: Tmax) [h] | Blood glucose level (mM) 15 min ([2]; 3 nmol/kg s.c. single dose, 24 h after administration, 15 min after 2 g/kg glucose i.p.) [mM] | Blood glucose level (mM) 30 min ([2]; 3 nmol/kg s.c. single dose, 24 h after administration, 30 min after 2 g/kg glucose i.p.) [mM] | Blood glucose level (mM) 60 min ([2]; 3 nmol/kg s.c. single dose, 24 h after administration, 60 min after 2 g/kg glucose i.p.) [mM] | Blood glucose level (mM) 90 min ([2]; 3 nmol/kg s.c. single dose, 24 h after administration, 90 min after 2 g/kg glucose i.p.) [mM] | Blood glucose level (mM) 0 min ([2]; 3 nmol/kg s.c. single dose, 24 h after administration, basal before 2 g/kg glucose i.p.) [mM] | improvement of glucose tolerance compared with LY3298176 ([2]; 24 hours after a single administration, 3 nmol/kg) | AUC0-90 min ([2]; blood glucose AUC, 3 nmol/kg s.c. single dose, 24 h after administration, 2 g/kg glucose i.p.) | EC50 (GCGR) [nM] | EC50 (GLP-1R) [nM] | EC50 (GIPR) [nM] | Tmax [1] [h] | half-life ([1]; 50 nmol/kg) [h] | EC50 (GCGR; HEK293-GCGR cells, cAMP, read-out: GCGR (EC50)) [nM] | EC50 (GLP-1R; HEK293-GLP-1R cells, cAMP, read-out: GLP-1R (EC50)) [nM] | EC50 (GIPR; HEK293-GIPR cells, cAMP, read-out: GIPR (EC50)) [nM]
1 | CC[C@H](C)[C@H](NC(=O)[C@H](CCCCN)NC(=O)[C@H](CC(=O)O)NC(=O)[C@H](CCCCNC(=O)COCCOCCNC(=O)CC[C@H](NC(=O)CCCCCCCCCCCCCCCCC(=O)O)C(=O)O)NC(=O)[C@H](CC(C)C)NC(=O)[C@@H](NC(=O)[C@H](CO)NC(=O)[C@H](Cc1ccc(O)cc1)NC(=O)[C@H](CC(=O)O)NC(=O)[C@H](CO)NC(=O)[C@@H](NC(=O)[C@](C)(Cc1ccccc1F)NC(=O)[C@@H](NC(=O)CNC(=O)[C@H](CCC(N)=O)NC(=O)C(C)(C)NC(=O)[C@@H](N)Cc1ccc(O)cc1)[C@@H](C)O)[C@@H](C)O)[C@@H](C)CC)C(=O)N[C@@H](C)C(=O)N[C@@H](CCC(N)=O)C(=O)N[C@@H](CCC(N)=O)C(=O)N[C@@H](C)C(=O)N[C@@H](Cc1ccccc1)C(=O)N[C@H](C(=O)N[C@@H](CCC(=O)O)C(=O)N[C@@H](Cc1ccc(O)cc1)C(=O)N[C@@H](CC(C)C)C(=O)N[C@@H](CC(C)C)C(=O)N[C@@H](CCC(=O)O)C(=O)NCC(=O)NCC(=O)N1CCC[C@H]1C(=O)N[C@@H](CO)C(=O)N[C@@H](CO)C(=O)NCC(=O)N[C@@H](C)C(=O)N1CCC[C@H]1C(=O)N1CCC[C@H]1C(=O)N1CCC[C@H]1C(=O)N[C@@H](CO)C(N)=O)[C@@H](C)CC [HEC-PT113] (H-Y[Aib]QGT[αMePhe(2-F)]TSDYSILK([AEEA-γGlu-C18 diacid])DKIAQQAFIEYLLEGGPSSGAPPPS-NH2) | 27900 ± 4180 | 27700 ± 4110 | 714 ± 63.2 | 11 ± 0.62 | 13 ± 9.9 | 12.6 ± 1.7 | 8.0 ± 1.0 | 7.9 ± 1.3 | 6.7 ± 0.8 | 4.6 ± 0.9 | improved glucose tolerance in mice better than the positive control LY3298176 | 743.5±48.5^a | 0.171 | 0.103 | 0.0188 |  |  |  |  | 
2 | CC[C@H](C)[C@H](NC(=O)[C@H](Cc1ccccc1)NC(=O)[C@H](C)NC(=O)[C@H](CCC(N)=O)NC(=O)[C@H](CCC(N)=O)NC(=O)[C@H](CCCNC(=N)N)NC(=O)[C@H](CCCCNC(=O)COCCOCCNC(=O)CC[C@H](NC(=O)CCCCCCCCCCCCCCCCCCC(=O)O)C(=O)O)NC(=O)[C@H](CCC(=O)O)NC(=O)[C@H](CC(=O)O)NC(=O)[C@H](CC(C)C)NC(=O)[C@H](CC(C)C)NC(=O)[C@@H](NC(=O)[C@H](CO)NC(=O)[C@H](Cc1ccc(O)cc1)NC(=O)[C@H](CC(=O)O)NC(=O)[C@H](CO)NC(=O)[C@@H](NC(=O)[C@](C)(Cc1ccccc1F)NC(=O)[C@@H](NC(=O)CNC(=O)[C@H](Cc1c[nH]cn1)NC(=O)C(C)(C)NC(=O)[C@@H](N)Cc1ccc(O)cc1)[C@@H](C)O)[C@@H](C)O)[C@@H](C)CC)C(=O)N[C@@H](CCC(=O)O)C(=O)N[C@@H](Cc1ccc(O)cc1)C(=O)N[C@@H](CC(C)C)C(=O)N[C@@H](CC(C)C)C(=O)N[C@@H](CCC(=O)O)C(=O)NCC(=O)NCC(=O)N1CCC[C@H]1C(=O)N[C@@H](CO)C(=O)N[C@@H](CO)C(=O)NCC(=O)N[C@@H](C)C(=O)N1CCC[C@H]1C(=O)N1CCC[C@H]1C(=O)N1CCC[C@H]1C(=O)N[C@@H](CO)C(=O)O [HEC-PT93] |  |  |  |  |  |  |  |  |  |  |  |  |  |  |  | 25 ± 2.3 | 19 ± 1.2 | 0.354 | 1.17 | 0.159
